Source: US20240415919A1, “COMPOSITIONS AND METHODS FOR TREATMENT OF AUTOIMMUNE DISORDERS AND CANCER” (Dana-Farber Cancer Institute, Inc., priority 2021, published 2024)
Entries after “also recorded” stand apart in the source; their conditions may differ.

What was measured:
[1] = tested on: fully-mismatched kidney transplants; experiment: BALB/c to B6 kidney transplantation with FL9-SA vaccination; type: in vivo, mouse
Description: The left kidney of BALB/c mice (H-2^d) was recovered using a full-length ureter and transplanted into a B6 host (H-2^b). The ureter of the remaining native kidney was then ligated on post-operative day 2-4 to inhibit native kidney function. Surgical success was determined if mice survived seven days post-surgery (POD). Transplanted B6 hosts were treated intraperitoneally with FL9-SA (50 μg), or PBS emulsified in Adjuvant (Addavax™), once a week starting POD2. On day 20 following kidney transplantation (n=5-7/group), allograft draining lymphoid tissues were assessed for FL9-specific Treg (Qa-1-FL9 Tet^+), Tfh, GC B and plasma cells, DSA levels in sera, capillary C4d deposition and gross anatomy of kidney allografts. Survival of kidney allografts was measured by survival of recipients with absence of native kidney function.

EL4 tumor cells (Qa-1+) = experiment: EL4 tumor growth in B6 mice; type: in vivo, mouse; conditions: EL4 (Qa-1 WT) in B6 mice; vs isotype control / IFA alone; listed as FL9-68 SA
Description: FIG. 9A-B provides a graphical representation showing that the depletion of CD8 Treg enhances anti-tumor immune responses. WT B6 mice were inoculated with 2×10^5 EL4 (Qa-1 WT) orEL4-Qa-1 KO cells. Mice received EL4 WT or EL4 Qa-1 KO cells were treated with four different conditions: 1) PBS/IFA+ isotype control Ab (mIgG1), 2) PBS/IFA+ anti-Ly49F Ab, 3) PBS/IFA+anti-Qa-1 Ab and 4) FL9.68/IFA+isotype Ab (mIgG1). 100 ug of FL9.68 peptide (day 0 and day 10), 50 ug of anti-Ly49F Ab and 100 ug of anti-Qa-1 Ab (day 0, 3 and 6) were injected respectively. A) Status of Ly49+CD8 cells in the blood at day 3 and 6 after tumor induction (panel A). Tumor growth in mice inoculated with EL4 WT (left) andEL4 Qa-1 KO (right) tumor cells until day 7. […] This effect was not observed in mice inoculated with EL4-Qa-1KO tumor cells (panel B).

FYAEATLML [FL9-68, FL9 peptide variant containing a P→L substitution at pos 7; superagonist for CD8 Treg]
CD44+ CD4 T-cell memory responses to irradiated donor lymphocytes ([1]; CD4+ T cells from B6 hosts): reduced CD44^+ CD4 T-cell memory responses
increase in FL9-specific Treg measured by FL9-Qa-1 tetramers ([1]; allograft-draining lymph nodes, day 20 after kidney transplantation): > 7 fold
mean survival time of kidney allograft ([1]; controls 20.5 days): 40 days
donor-specific antibody (DSA) ([1]; kidney graft recipients): markedly reduced donor specific Ab generation; also recorded: significant decrease in DSA
GC response: frequency of Tfh, activated GC B and plasma cells ([1]; kidney graft recipients, vs IFA alone): markedly reduced the GC response
C4d deposition in peritubular capillaries of kidney allografts ([1]; mouse, in vivo): reduced C4d deposition
EL4 tumor growth (EL4 tumor cells (Qa-1+)): facilitated tumor growth
